Legend:
[1] = system: phagocytic microglia (jellyfish morphology); assay: Phagocytic (jellyfish) microglia after meningeal compression injury, 2P microscopy; assay type: in vivo, heterozygous CX3CR1-GFP mice; conditions: p<0.05; for percentage of phagocytic (jellyfish) microglia in the imaging field: antagonist in aCSF applied to skull bone 30 min prior to injury, quantified 3 hrs post-injury, vs vehicle, FIG. 3
Procedure: (§1) Skull Thinning & Compression Injury. For imaging experiments, mice were anesthetized with ketamine (85 mg/kg), xylazine (13 mg/kg), and acepromazine (2 mg/kg) in PBS and maintained at a core temperature of 37° C. The skull bone over the barrel cortex was then thinned to a thickness of ˜30-40 μm as described (PMID: 20134419). For this procedure, the bone was manually thinned over a 30 minute period, and the amount of downward pressure was kept to a minimum. To induce a compression injury, the skull was thinned within 5 min to a thickness of ˜10-15 μm. Once thinned, the blunt of a surgical instrument was used to gently press the pliable skull bone downward. […] In one set of experiments, the skull bone was intentionally cracked to induce a severe injury. Imaging was performed immediately after injury.
Intravital two-photon laser scanning microscopy. Mice with a normally thinned or compressed skull bone were imaged using a Leica SP5 two-photon imaging system (Leica Microsystems, Bannockburn, Ill.) equipped with an 8000 Hz resonant scanner, a 20×/1.0 NA dipping objective, and two Mai Tai HP DeepSee Lasers (SpectraPhysics) tuned to 905, 920 or 970 nm. Fluorescence emission was separated by high efficiency custom dichroic mirrors (Semrock) and collected with a NDD4 external detector (Leica). Stacks of images were acquired using a step size of 1.0 μm to a depth of 150 μm. Time lapse movies were acquired with 1 min intervals between 3D stacks. For all imaging studies, the 20× lens was submerged directly into artificial cerebral spinal fluid (aCSF; 119 mM NaCl, 26.2 mM NaHCO3, 2.5 mm KCl, 1 mM NaH2PO4, 1.3 mM MgCl2, 1.2 mM CaCl2, 0.4% glucose, pH 7.4) placed atop the thinned skull.
Purinergic receptor, connexin hemichannel, and ROS antagonism. Prior to skull thinning, antagonists diluted in aCSF were applied directly to the skull bone, and vehicle was simultaneously applied to the opposite hemisphere to serve as a control. […] Vehicle and purinergic receptor antagonists were applied as a 3 mm diameter bubble on the skull surface and replenished as needed over a 30 min incubation period to prevent drying. This allowed the antagonists to continuously pass through the skull bone. Following the 30 min incubation, the skull was dried and then thinned to induce a compression injury over both hemispheres. Imaging was initiated immediately after injury. For most studies, the skull bone pre-incubated with antagonists was imaged continuously for 3-10 hrs, after which a 3D stack was captured from both the vehicle and antagonist treated areas for quantitative purposes. […] A similar study was conducted using 10 mM CBX.
Image Analysis. All quantitative analyses and processing of 3D/4D imaging data were performed using Imaris 7.0 software (Bitplane). Supplemental movies were constructed and annotated using Adobe Premiere Pro CS4. Microglia “honeycomb” reactions were quantified from 434×434×150 μm (xyz) 3D image stacks obtained at selected time points in CX3CR1^gfp/+ mice. This was accomplished by measuring the total length of microglial processes in contact with the glial limitans. […] Afterward, 10 microglia per mouse were randomly selected for quantification of process length. Only cells with all of their processes in the field of view and no more than 50 μm beneath the skull bone were quantified. Microglial processes that were touching (flat against) the glial limitans were labeled and measured using the Imaris “filaments” tool. […]

[2] = system: microglia processes associated with the glial limitans; assay: Length of microglial processes in contact with the glial limitans after meningeal compression injury; assay type: in vivo, mice; conditions: for length of microglial processes in contact with the glial limitans: transcranial administration of antagonist before injury, three hours following injury, p<0.05, FIG. 4
Procedure: as §1
(§2) Intravital two-photon laser scanning microscopy. […] Fluorescence emission was separated by high efficiency custom dichroic mirrors (Semrock) and collected with a NDD4 external detector (Leica). […]
(§3) Purinergic receptor, connexin hemichannel, and ROS antagonism. […] For most studies, the skull bone pre-incubated with antagonists was imaged continuously for 3-10 hrs, after which a 3D stack was captured from both the vehicle and antagonist treated areas for quantitative purposes. […]
Image Analysis. All quantitative analyses and processing of 3D/4D imaging data were performed using Imaris 7.0 software (Bitplane). […] Microglia “honeycomb” reactions were quantified from 434×434×150 μm (xyz) 3D image stacks obtained at selected time points in CX3CR1^gfp/+ mice. […] Afterward, 10 microglia per mouse were randomly selected for quantification of process length. Only cells with all of their processes in the field of view and no more than 50 μm beneath the skull bone were quantified. Microglial processes that were touching (flat against) the glial limitans were labeled and measured using the Imaris “filaments” tool. […]

[3] = Skull bone permeability analysis (transcranial permeation of fluorescent probes); assay type: in vivo, mice; conditions: applied to intact skull bone as 3 mm bubble; 2P microscopy immediately after loading; FIG. 2
Procedure: Skull bone permeability analysis. For skull bone permeability studies, the following rhodamine-labeled dextrans were placed directly on the intact skull bone for up to 30 min: 3,000 MW (25 mM), 10,000 MW (5 mM), 40,000 MW (1 mM), and 70,000 MW (0.5 mM). SR101 (1 mM), a sulforhodamine dye, was used as a representative of 600 MW compound. Compounds were replenished as needed to prevent drying. Following the incubation period, the skull bone was quickly thinned and imaged. A 3D stack was captured to determine if the fluorescence could be found beneath the skull bone.
This example illustrates the effect of molecular weight of the compounds on the rate of transcranial permeation. To define the time and size of compounds that pass directly through the intact (non-thinned) skull, […] SR101 (600 MW) or different sized rhodamine-dextrans (25 mM 3,000 MW; 5 mM 10,000 MW; 1 mM 40,000 MW; 0.5 mM 70,000 MW) were applied to the skull bone. A 3 mm diameter bubble was left on the skull surface for the amount of time noted in minutes on the y axis of the table above. Because all compounds fluoresced, 2P microscopy was performed immediately after transcranial loading to determine if the compounds were present in the subarachnoid space.

neutrophils = assay: Neutrophil recruitment following meningeal compression injury; assay type: in vivo, LysM-GFP transgenic reporter mouse; conditions: p<0.05
Procedure: Skull Thinning & Compression Injury. For imaging experiments, mice were anesthetized with ketamine (85 mg/kg), xylazine (13 mg/kg), and acepromazine (2 mg/kg) in PBS and maintained at a core temperature of 37° C. The skull bone over the barrel cortex was then thinned to a thickness of ˜30-40 μm as described (PMID: 20134419). For this procedure, the bone was manually thinned over a 30 minute period, and the amount of downward pressure was kept to a minimum. To induce a compression injury, the skull was thinned within 5 min to a thickness of ˜10-15 μm. Once thinned, the blunt of a surgical instrument was used to gently press the pliable skull bone downward. […]
as §2, §3
Image Analysis. All quantitative analyses and processing of 3D/4D imaging data were performed using Imaris 7.0 software (Bitplane). […] Afterward, 10 microglia per mouse were randomly selected for quantification of process length. […]

Compound | percentage of phagocytic (jellyfish) microglia in the imaging field [1] | length of microglial processes in contact with the glial limitans [2] | further results
S=C=Nc1cccc(NC(=S)NCCCCNC(=S)Nc2cccc(N=C=S)c2)c1 [MRS2578] | significantly reduced |  | 
CSc1nc(N)c2ncn([C@@H]3O[C@H](COP(=O)(O)O)[C@@H](O)[C@H]3O)c2n1 [MeSAMP] | significantly reduced | significantly reduced | 
O=S(=O)([O-])c1cc(S(=O)(=O)O)ccc1C1=c2cc3c4c(c2Oc2c1cc1c5c2CCCN5CCC1)CCC[N+]=4CCC3 [SR101] |  |  | rate of passage through the skull into the subarachnoid space [3]: pass through the skull more quickly than larger compounds
N[C@@H](CCC(=O)N[C@@H](CS)C(=O)NCC(=O)O)C(=O)O [glutathione] |  |  | recruitment of neutrophils following compression injury (neutrophils; pretreatment with 100 mM, transcranial, FIG. 8): significantly reduced; formation of phagocytic (jellyfish) microglia following injury ([1]; pretreatment with 100 mM, transcranial, FIG. 9): eliminated the formation; microglia extending their processes and contacting the glial limitans ([2]; pretreatment with 100 mM, transcranial, FIG. 10): completely prevented
Nc1ncnc2c1ncn2[C@@H](C=O)O[C@@H](C=O)COP(=O)(O)OP(=O)(O)OP(=O)(O)O [oxidized ATP] | not |  | neutrophil recruitment to the injury site (neutrophils; transcranial P2X7 antagonist applied to skull before injury, FIG. 5): completely blocked
trinitrophenyl-ATP hydrate [TNP-ATP hydrate] | significantly reduced | significantly reduced | 

Source: patent US9974801B2, “Methods of treating and preventing diseases and disorders of the central nervous system” (The United States of America, as represented by the …, priority 2012, dated 2018)
